Assays:
[1] = test system: Renca renal cell carcinoma cells; test: qRT-PCR, combination with ADU-S100, Renca cells; format: cell-based, Mouse; conditions: for IFNB1 mRNA expression: 2 μM Compound 1, 10 μM ADU-S100, 4 h; for CCL5 mRNA expression / CXCL10 mRNA expression: 2 μM Compound 1, 10 μM ADU-S100, 24 h; for increase in IFNB1, CCL5 and CXCL10 with siRNA knockdown of STING: siSTING
Procedure: Renca cells were grown in RPMI-1640 medium containing 10% fetal bovine serum. Cells were then incubated for 2 days at 37 degrees Celsius, 5% CO2, and 95% humidity. Renca cells were reversely transfected with scrambled siRNA control (siSCR) or siRNA targeting STING (siSTING). After transfection for 48 h, cells were treated with DMSO control, 2 μM Compound 1 or 2 μM Compound 2 in combination with 10 μM ADU-S100 for 4 h (for Ifnb1) or 24 h (Ccl5 and Cxcl10). Cells were washed with PBS and RNA was isolated using the PureLink RNA kit (#12183018A, Thermo Fisher Scientific) according to the manufacturer's protocol. Genomic DNA was removed using DNA-binding columns (RNeasy plus kit, #74134, Qiagen) and/or DNase treatment (#12185010, Thermo Fisher Scientific). RNA was quantified using NanoDrop (Thermo Fisher Scientific) and 50 ng/μL RNA was used for cDNA synthesis with SuperScript IV VILO Master Mix (#11756050, Thermo Fisher Scientific). Quantitative RT-PCR (qRT-PCR) was run with diluted cDNA (1:25 or 1:12.5), PowerUp SYBR Green Master Mix (#A25741, Thermo Fisher Scientific), and 200 nM primers (see below) on a CFX Connect RT-PCR system (BioRad). Data was analyzed using the ΔΔCT method. Results are mean±SEM of three independent experiments.

[2] = test system: Renca renal cell carcinoma cells; test: IncuCyte live-cell imaging, cell confluence, Renca cells; format: cell-based; conditions: 2 μM Compound 1, ADU-S100, up to 72 hours
Procedure: Renca cells were treated with a combination of DMSO or 2 μM Compound 1 alone or in combination with STING agonist ADU-S100 for 24 hours. Treatment with 1 μM staurosporine was used as a positive control for apoptosis induction. To assess cell proliferation, 1000 cells/well were plated in 96-well plates. After 24 h, cells were treated with compounds in 100 μL complete medium. Phase-contrast images (10×) were acquired every 3 h for 24-72 h and cell confluence (%) was calculated using the IncuCyte S3 live-cell analysis system (Sartorius). For monitoring apoptosis, 5 μM of IncuCyte Caspase-3/7 Green Dye (#4440, Sartorius) was added to the medium at the time of treatment. Both phase-contrast and green fluorescent images were captured. Caspase 3/7 induction was calculated by counting green fluorescent objects per mm^2 and dividing it by the percentage of cell confluency.

[3] = test system: 786-O renal cell carcinoma cells; test: Western blot, STING pathway proteins with siRNA knockdown, 786-O cells; format: cell-based; conditions: 24 h; for CGAS level / STING level / p-IRF3 level / p-STAT1 level / p-TKB1 level / p-IRF3 and p-STAT1 levels with siRNA knockdown of CGAS / p-TKB1 level with siRNA knockdown of CGAS / p-IRF3 and p-STAT1 levels with siRNA knockdown of STING / p-TBK1 level with siRNA knockdown of STING: 2 μM; for CGAS level / STING level / p-IRF3 level / p-STAT1 level / p-TKB1 level: vs DMSO alone; for p-IRF3 and p-STAT1 levels with siRNA knockdown of CGAS / p-TKB1 level with siRNA knockdown of CGAS: siCGAS; for p-IRF3 and p-STAT1 levels with siRNA knockdown of CGAS / p-TKB1 level with siRNA knockdown of CGAS / p-IRF3 and p-STAT1 levels with siRNA knockdown of STING / p-TBK1 level with siRNA knockdown of STING: vs compound alone; for p-IRF3 and p-STAT1 levels with siRNA knockdown of STING / p-TBK1 level with siRNA knockdown of STING: siSTING; for STING level with siRNA knockdown of TBK1 / CGAS level with siRNA knockdown of TBK1: siTBK1, 2 μM; for CGAS level with siRNA knockdown of TBK1: vs DMSO
Procedure: 786-O cells were transfected with scrambled siRNA control (siSCR) or siRNA targeting TBK1 (siTBK1), STING (siSTING) or CGAS (siCGAS). After 48 h cells were treated with DMSO or 2 μM of VPS34 inhibitor (Compound 1 or Compound 2) for 24 h. 786-O cells were washed in PBS and lysed in RIPA buffer (50 mM Tris HCl pH=7.4, 150 mM NaCl, 1% Triton X-100, 0.5% Na-deoxycholate, 0.1% SDS) containing protease inhibitor cocktail (#11836170001, Roche), and phosphatase inhibitor (#11836170001, Roche) for 10 min at 4° C. After centrifugation at 15000 rpm for 10 min at 4° C., the supernatant was obtained, and protein concentration was quantified using BCA assay (#23225, Thermo Fisher). Equal amounts were mixed with 0.1 M DTT and LDS Sample Buffer (#84788, Thermo Fisher), heated for 5 min at 90° C. before loading onto 4-12% Bis-Tris gels. Proteins were transferred to nitrocellulose membranes. Membranes were blocked in 5% non-fat dry milk in TBS with 0.05% Tween (TBS-T) for 1 h at RT, washed in TBS-T, and probed with primary antibodies shaking overnight at 4° C. After washing in TBS-T, membranes were incubated with IRDye 800CW goat anti-rabbit or IRDye 680RD donkey anti-mouse IgG (H+L) (#926-32211 and #926-68072, respectively, LI-COR, 1:10,000 dilution) secondary antibody in Intercept blocking buffer (#927-60001, LI-COR) for 1 h at RT. After washing in TBS-T, membranes were imaged using the Odyssey CLx (LI-COR). Band intensities were quantified using Image Studio Lite software version 5.2.5 (LI-COR).

YUMM 1.7 melanoma cells = test: Cytokine secretion assay, combination with cGAMP, YUMM1.7 cells; format: cell-based, mouse; conditions: 24 hours, 5 μM Compound 1 or 10 μM Compound 2, 10 mg/ml cGAMP
Procedure: YUMM1.7 cells were treated for 24 hours with DMSO or VPS34 inhibitors (5 μM Compound 1 or 10 μM Compound 2) in combination with 10 mg/ml STING agonist cGAMP (green bars). Cells were washed with PBS and RNA was isolated using the PureLink RNA kit (#12183018A, Thermo Fisher Scientific) according to the manufacturer's protocol. Genomic DNA was removed using DNA-binding columns (RNeasy plus kit, #74134, Qiagen) and/or DNase treatment (#12185010, Thermo Fisher Scientific). RNA was quantified using NanoDrop (Thermo Fisher Scientific) and 50 ng/μL RNA was used for cDNA synthesis with SuperScript IV VILO Master Mix (#11756050, Thermo Fisher Scientific). Quantitative RT-PCR (qRT-PCR) was run with diluted cDNA (1:25 or 1:12.5), PowerUp SYBR Green Master Mix (#A25741, Thermo Fisher Scientific), and 200 nM primers (see below) on a CFX Connect RT-PCR system (BioRad). Data was analyzed using the ΔΔCT method. Results are mean±SEM of three independent experiments.
Cell culture medium was centrifuged at 1600 rpm for 10 min at 4° C. and obtained supernatant stored at −80° C. Cytokine levels were quantified using following Meso Scale Discovery (MSD) assays: mouse U-PLEX RANTES/CCL5 (#K152A2K) and U-PLEX IP-10/CXCL10 (#K152UFK). Assays were run on the SECTOR Quickplex Imager and analyzed using Discovery Workbench version 4.0 (MSD).

Structure (SMILES) | IFNB1 mRNA expression [1] | CCL5 mRNA expression [1] | CXCL10 mRNA expression [1] | increase in IFNB1, CCL5 and CXCL10 with siRNA knockdown of STING [1] | cell confluence [2] | CGAS level [3] | STING level [3] | p-IRF3 level [3] | p-STAT1 level [3] | p-TKB1 level [3] | p-IRF3 and p-STAT1 levels with siRNA knockdown of CGAS [3] | p-TKB1 level with siRNA knockdown of CGAS [3] | p-IRF3 and p-STAT1 levels with siRNA knockdown of STING [3] | p-TBK1 level with siRNA knockdown of STING [3] | STING level with siRNA knockdown of TBK1 [3] | CGAS level with siRNA knockdown of TBK1 [3] | CCL5 protein secretion (YUMM 1.7 melanoma cells) | CXCL10 protein secretion (YUMM 1.7 melanoma cells)
Nc1ncnc2c1ncn2[C@@H]1O[C@@H]2COP(=O)([S-])O[C@@H]3[C@H](O)[C@@H](COP([O-])(=S)O[C@H]2[C@H]1O)O[C@H]3n1cnc2c(N)ncnc21.[Na+].[Na+] (stereo partly drawn) [ADU-S100, reference compound] | increased | increased | increased | blocked | no effect |  |  |  |  |  |  |  |  |  |  |  |  | 
C[C@@H]1COCCN1c1cc(N2CCCC[C@@H]2C(F)(F)F)[nH]c(=O)c1 [Compound 1, 4-((R)-3-methylmorpholino)-6-((R)-2-(trifluoromethyl)piperidin-1-yl)pyridin-2(1H)-one] | did not significantly increase | did increase | did increase | blocked | decreased | mild increase | increase | strong increases | strong increases | increase | complete loss | decrease | complete loss | decrease | increase | increase | increased | increased
C[C@@H]1COCCN1c1cc(=O)n2c(n1)N(Cc1cncc(Cl)c1)[C@H](C(F)(F)F)CC2 [Compound 2, (S)-9-((5-chloropyridin-3-yl)methyl)-2-((R)-3-methylmorpholino)-8-(trifluoromethyl)-6,7,8,9-tetrahydro-4H-pyrimido[1,2-a]pyrimidin-4-one] |  |  |  |  |  | mild increase | increase | strong increases | strong increases | increase | complete loss | decrease | complete loss | decrease | increase | increase | increased | increased
